Laboratory results from patent publication US20250387400A1, “TYK2 INHIBITORS” (BIOGEN MA INC., priority 2022, published 2025).
pIC50: −log10 of the molar value. Where a name gives a salt, the structure may show the parent alone. Read-outs that look alike come from different tables or passages of the source.

Key:
Assay type in all cases: biochemical
[1] = biological target: T1, catalytic kinase (JH1) domain of human TYK2 (Homo sapiens, UniProt P29597); experiment: ADP-Glo kinase assay, TYK2 kinase domain; conditions: for IC50: 2 nM recombinant TYK2 kinase domain, 50 μM JAK3-974 peptide, 10 μM ATP, 100 minutes, read-out: TYK2 biochem IC50 (nM) Mean
T1 construct: recombinantly generated catalytic kinase (also known as JH1) domain of human JAK1, JAK2, JAK3 and TYK2
T1 sequence (P29597 897-1176 limits assumed): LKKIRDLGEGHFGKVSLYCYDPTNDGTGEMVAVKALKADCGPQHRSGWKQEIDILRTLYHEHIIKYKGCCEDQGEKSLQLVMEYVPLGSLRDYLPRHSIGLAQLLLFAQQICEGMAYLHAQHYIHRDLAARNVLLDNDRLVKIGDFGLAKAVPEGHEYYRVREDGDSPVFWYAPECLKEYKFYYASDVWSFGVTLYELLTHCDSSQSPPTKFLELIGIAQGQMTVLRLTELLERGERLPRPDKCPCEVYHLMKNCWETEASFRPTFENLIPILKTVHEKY
Protocol: (§1) As summarized in Table 3 below, compounds of the disclosure were assessed for their ability to inhibit TYK2, JAK1, JAK2, and JAK3 activity.
(§2) The kinase activity of recombinantly generated catalytic kinase (also known as JH1) domain of human JAK1, JAK2, JAK3 and TYK2 were evaluated in a plate-based assay using the ADP-Glo™ Kinase Assay platform. […] The reactions proceed for 100 minutes and the catalytic activity is quantified by first depleting the unused ATP, converting the hydrolyzed ADP into ATP to generate luminescence in a luciferase reaction; which is the basis of the ADP-Glo platform. Compounds are tested at either 10 μM or 1 μM top concentration, 11 points of 3-fold dilution. The data is normalized and the percent activity versus log concentration of compound is fitted with a 4-parameter logistic model to generate a curve and an IC50 value.

[2] = biological target: T2, catalytic kinase (JH1) domain of human JAK3 (Homo sapiens, UniProt P52333); experiment: ADP-Glo kinase assay, JAK3 kinase domain; conditions: for IC50: 0.3 nM recombinant JAK3 kinase domain, 50 μM JAK3-974 peptide, 4 μM ATP, 100 minutes, read-out: JAK3 biochem IC50 (nM) Mean
T2 construct: Catalytic activities of recombinant JAK2, JAK3 and TYK2 kinase domain
T2 sequence (P52333 822-1111 limits assumed): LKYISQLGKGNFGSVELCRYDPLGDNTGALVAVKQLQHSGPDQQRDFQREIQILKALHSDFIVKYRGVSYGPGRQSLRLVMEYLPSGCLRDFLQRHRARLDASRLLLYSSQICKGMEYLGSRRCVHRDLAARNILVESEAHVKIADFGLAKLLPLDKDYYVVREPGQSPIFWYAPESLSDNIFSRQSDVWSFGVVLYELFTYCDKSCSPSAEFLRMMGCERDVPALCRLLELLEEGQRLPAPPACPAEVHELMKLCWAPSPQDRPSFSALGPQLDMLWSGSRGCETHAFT
Protocol: as §1, §2

[3] = biological target: T3, catalytic kinase (JH1) domain of human JAK2 (Homo sapiens, UniProt O60674); experiment: ADP-Glo kinase assay, JAK2 kinase domain; conditions: for IC50: 0.2 nM recombinant JAK2 kinase domain, 50 μM JAK3-974 peptide, 15 μM ATP, 100 minutes, read-out: JAK2 biochem IC50 (nM) Mean
T3 construct: Catalytic activities of recombinant JAK2, JAK3 and TYK2 kinase domain
T3 sequence (O60674 849-1124 limits assumed): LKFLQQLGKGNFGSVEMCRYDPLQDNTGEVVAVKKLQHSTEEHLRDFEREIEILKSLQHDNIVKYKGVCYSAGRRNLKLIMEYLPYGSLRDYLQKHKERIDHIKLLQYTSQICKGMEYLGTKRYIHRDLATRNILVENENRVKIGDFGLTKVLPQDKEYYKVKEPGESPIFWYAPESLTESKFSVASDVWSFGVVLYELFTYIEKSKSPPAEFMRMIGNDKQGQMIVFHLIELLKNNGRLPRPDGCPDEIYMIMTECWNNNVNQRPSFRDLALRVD
Protocol: as §1, §2

[4] = biological target: T4, catalytic kinase (JH1) domain of human JAK1 (Homo sapiens, UniProt P23458); experiment: ADP-Glo kinase assay, JAK1 kinase domain; conditions: for IC50: 4 nM recombinant JAK1 kinase domain, 50 μM JAK3-342 peptide, 35 μM ATP, 100 minutes, read-out: JAK1 biochem IC50 (nM) Mean
T4 construct: 4 nM of recombinant JAK1 kinase domain is used to phosphorylate
T4 sequence (P23458 875-1153 limits assumed): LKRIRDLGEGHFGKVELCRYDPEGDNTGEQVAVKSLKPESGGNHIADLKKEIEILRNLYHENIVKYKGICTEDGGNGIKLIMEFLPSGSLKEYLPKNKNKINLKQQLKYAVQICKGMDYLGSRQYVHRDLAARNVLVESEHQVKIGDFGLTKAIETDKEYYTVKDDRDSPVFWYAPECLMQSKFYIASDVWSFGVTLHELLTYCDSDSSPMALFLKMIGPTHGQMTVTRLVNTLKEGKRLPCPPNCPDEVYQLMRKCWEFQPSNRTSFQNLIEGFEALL
Protocol: as §1, §2

Cn1cc(-c2cc3c(N4CC5CCC(C4)N5[C@H]4C[C@H](C#N)C4(C)C)ccnn3c2)cn1 (single isomer, unassigned) [Example 46]
pIC50 [1]: 7.47
pIC50 [2]: 5.73
pIC50 [3]: 6.67
pIC50 [4]: 6.02

Cn1cc(-c2nc3c(N4CC5CCC(C4)N5C4COC4)ccnc3[nH]2)cn1 [Example 9, 2-(1-methyl-1H-pyrazol-4-yl)-7-(8-(oxetan-3-yl)-3,8-diazabicyclo[3.2.1]octan-3-yl)-3H-imidazo[4,5-b]pyridine]
pIC50 [1]: 7.37
pIC50 [2]: < 6.00
pIC50 [3]: 6.66
pIC50 [4]: 6.56

Cn1cc(-c2cc3c(N4CC5CCC(C4)N5[C@@H]4CCC45COC5)ccnn3c2)cn1 (single isomer, unassigned) [Example 41]
pIC50 [1]: 7.15
pIC50 [2]: 5.07
pIC50 [3]: 6.38
pIC50 [4]: 5.66

CO[C@H]1C[C@H](N2C3CCC2CN(c2ccnc4[nH]c(-c5cnn(C)c5)nc24)C3)C1 [Example 5, 7-(8-((1r,3R)-3-methoxycyclobutyl)-3,8-diazabicyclo[3.2.1]octan-3-yl)-2-(1-methyl-1H-pyrazol-4-yl)-3H-imidazo[4,5-b]pyridine]
IC50 [1]: 145 nM
IC50 [2]: 9700 nM
IC50 [3]: 870 nM
IC50 [4]: 900 nM

Cn1cc(-c2cc3c(N4CC5CCC(C4)N5[C@H]4C[C@@H](C#N)C4(C)C)ccnn3c2)cn1 (single isomer, unassigned) [Example 47]
pIC50 [1]: 8.63
pIC50 [2]: 6.89
pIC50 [3]: 7.76
pIC50 [4]: 7.14

COc1cc(-c2cc3c(N4CC5CCC(C4)N5C4COC4)ccnn3c2)cnn1 [Example 53, 6-(6-methoxypyridazin-4-yl)-4-(8-(oxetan-3-yl)-3,8-diazabicyclo[3.2.1]octan-3-yl)pyrrolo[1,2-b]pyridazine]
IC50 [1]: 715 nM
IC50 [2]: > 10000 nM
IC50 [3]: 5700 nM
IC50 [4]: 4200 nM

Cn1cc(-c2nc3c(N4CC5CCC(C4)N5C4CNC4)ccnc3[nH]2)cn1 [Example 11, 7-(8-(azetidin-3-yl)-3,8-diazabicyclo[3.2.1]octan-3-yl)-2-(1-methyl-1H-pyrazol-4-yl)-3H-imidazo[4,5-b]pyridine hydrochloride]
IC50 [1]: 330 nM
IC50 [2]: > 5000 nM
IC50 [3]: 635 nM
IC50 [4]: 970 nM

COC[C@]1(C#N)C[C@H](N2C3CCC2CN(c2ccnn4cc(-c5cnn(C)c5)cc24)C3)C1 [Example 42, (1s,3s)-1-(methoxymethyl)-3-(3-(6-(1-methyl-1H-pyrazol-4-yl)pyrrolo[1,2-b]pyridazin-4-yl)-3,8-diazabicyclo[3.2.1]octan-8-yl)cyclobutane-1-carbonitrile]
IC50 [1]: 100 nM
IC50 [2]: 2400 nM
IC50 [3]: 400 nM
IC50 [4]: 675 nM

Cn1cc(-c2cc3c(N4CC5CCC(C4)N5C4CC(C#N)C4)ccnc3[nH]2)cn1 [Example 17, (1R,3r)-3-(3-(2-(1-methyl-1H-pyrazol-4-yl)-1H-pyrrolo[2,3-b]pyridin-4-yl)-3,8-diazabicyclo[3.2.1]octan-8-yl)cyclobutane-1-carbonitrile]
IC50 [1]: 2.8 nM
IC50 [2]: 67.7 nM
IC50 [3]: 20 nM
IC50 [4]: 36.7 nM

N#C[C@H]1C[C@@H](N2C3CCC2CN(c2ccnn4cc(-c5cnn(C(F)F)c5)cc24)C3)C1 [Example 60, (1S,3s)-3-(3-(6-(1-(difluoromethyl)-1H-pyrazol-4-yl)pyrrolo[1,2-b]pyridazin-4-yl)-3,8-diazabicyclo[3.2.1]octan-8-yl)cyclobutane-1-carbonitrile]
IC50 [1]: 2.38 nM
IC50 [2]: 132 nM
IC50 [3]: 17.5 nM
IC50 [4]: 25.5 nM

COc1cc(-c2cc3c(N4CC5CCC(C4)N5C4CC(C#N)C4)ccnn3c2)cnn1 (stereo not shown) [Example 54, 3-(3-(6-(6-methoxypyridazin-4-yl)pyrrolo[1,2-b]pyridazin-4-y1)-3,8-diazabicyclo[3.2.1]octan-8-yl)cyclobutane-1-carbonitrile]
IC50 [1]: 72 nM
IC50 [2]: 1600 nM
IC50 [3]: 305 nM
IC50 [4]: 420 nM

CO[C@H]1C[C@H](N2C3CCC2CN(c2ccnn4cc(-c5cnn(C)c5)cc24)C3)C1 [Example 29, 4-(8-((1r,3R)-3-methoxycyclobutyl)-3,8-diazabicyclo[3.2.1]octan-3-yl)-6-(1-methyl-1H-pyrazol-4-yl)pyrrolo[1,2-b]pyridazine]
IC50 [1]: 187 nM
IC50 [2]: > 10000 nM
IC50 [3]: 3600 nM
IC50 [4]: 6500 nM

Cn1cc(-c2cc3c(N4CC5CCC(C4)N5[C@H]4C[C@@H](O)C4)ccnn3c2)cn1 [Example 32, (1S,3s)-3-(3-(6-(1-methyl-1H-pyrazol-4-yl)pyrrolo[1,2-b]pyridazin-4-yl)-3,8-diazabicyclo[3.2.1]octan-8-yl)cyclobutan-1-ol]
IC50 [1]: 460 nM
IC50 [2]: > 10000 nM
IC50 [3]: 6300 nM
IC50 [4]: > 10000 nM

Cn1cc(-c2cc3c(N4CC5CCC(C4)N5C4CC(O)C4)ccnn3c2)cn1 (stereo not shown) [Example 25, 3-(3-(6-(1-methyl-1H-pyrazol-4-yl)pyrrolo[1,2-b]pyridazin-4-yl)-3,8-diazabicyclo[3.2.1]octan-8-yl)cyclobutan-1-ol]
IC50 [1]: 435 nM
IC50 [2]: > 10000 nM
IC50 [3]: 5050 nM
IC50 [4]: 6250 nM

Cn1cc(-c2cc3c(N4CC5CCC(C4)N5[C@H]4CC[C@@H]4O)ccnn3c2)cn1 (racemic) [Example 49, rac-(1S,2S)-2-(3-(6-(1-methyl-1H-pyrazol-4-yl)pyrrolo[1,2-b]pyridazin-4-yl)-3,8-diazabicyclo[3.2.1]octan-8-yl)cyclobutan-1-ol]
IC50 [1]: 425 nM
IC50 [2]: > 10000 nM
IC50 [3]: 7700 nM
IC50 [4]: > 10000 nM

COC1CC(N2C3CCC2CN(c2ccnn4cc(-c5cnn(C)c5)cc24)C3)C1 (stereo not shown) [Example 24, 4-(8-(3-methoxycyclobutyl)-3,8-diazabicyclo[3.2.1]octan-3-yl)-6-(1-methyl-1H-pyrazol-4-yl)pyrrolo[1,2-b]pyridazine]
IC50 [1]: 19 nM
IC50 [2]: 4250 nM
IC50 [3]: 380 nM
IC50 [4]: 230 nM

CO[C@H]1CC[C@@H]1N1C2CCC1CN(c1ccnn3cc(-c4cnn(C)c4)cc13)C2 (racemic) [Example 51, Rac-4-(8-((1S,2S)-2-methoxycyclobutyl)-3,8-diazabicyclo[3.2.1]octan-3-yl)-6-(1-methyl-1H-pyrazol-4-yl)pyrrolo[1,2-b]pyridazine]
pIC50 [1]: 6.13
pIC50 [2]: < 5.00
pIC50 [3]: 5.22
pIC50 [4]: < 5.00

Cn1cc(-c2nc3c(N4CC5CCC(C4)N5[C@H]4C[C@](C)(C#N)C4)ccnc3[nH]2)cn1 [Example 1, (1R,3r)-1-methyl-3-(3-(2-(1-methyl-1H-pyrazol-4-yl)-3H-imidazo[4,5-b]pyridin-7-yl)-3,8-diazabicyclo[3.2.1]octan-8-yl)cyclobutane-1-carbonitrile]
IC50 [1]: 13.4 nM
IC50 [2]: 850 nM
IC50 [3]: 102 nM
IC50 [4]: 175 nM

Cn1cc(-c2cc3c(N4CC5CCC(C4)N5[C@H]4C[C@@](C)(C#N)C4)ccnn3c2)cn1 [Example 35, (1s,3s)-1-methyl-3-(3-(6-(1-methyl-1H-pyrazol-4-yl)pyrrolo[1,2-b]pyridazin-4-yl)-3,8-diazabicyclo[3.2.1]octan-8-yl)cyclobutane-1-carbonitrile]
IC50 [1]: 4.7 nM
IC50 [2]: 190 nM
IC50 [3]: 31.5 nM
IC50 [4]: 89 nM
